Measurements published in patent publication US20170305861A1, “HETEROARYL COMPOUNDS COMPRISING NITROGEN AND USE THEREOF” (ImmunoMet Therapeutics, Inc, priority 2016, published 2017).
Where two headings read alike, the source gives them in different places.

Experiments:
[1] = tested on: A549 cell lines (lung cancer cell lines); assay: Oxygen Consumption Rate (OCR) of cells, corrected for cell viability (Cyquant); format: cell-based; conditions: Homo sapiens; A549 cells, 24 h drug treatment, OCR value reflecting cell viability; read-out: OCR IC50
Description: The compounds synthesized by the methods disclosed in the Examples of the present invention have been measured on oxygen consumption rate and extracellular oxidation by the methods disclosed in the Test Examples below.
3×10^3 cells from A549 cell lines (purchased from ATCC-American Type Culture Collection), which are lung cancer cell lines, were placed on XF96 cell culture plates using RPMI1640 medium, and cultured at 37° C. in a 5% CO2 condition for 16 hours or more for attachment.
After 16 hours, the cells were treated with the drug at six different concentrations between 0 μM and 20 μM. After 24 hours, the existing medium was removed, and XF assay medium (15 mM D-Glucose, 15 mM sodium pyruvate, 4 mM L-Glutamine, pH 7.4) was added. The cells were retreated with the drug, and additionally cultured in Prep station at 37° C. in a non-CO2 condition for 1 hour. During the one-hour culture in the Prep station, a sensor cartridge was placed and calibrated for 20 minutes, and a plate with cells was placed to analyze the OCR. After the analysis was completed, XF96 plate was measured for cell viability using Cyquant assay, which measures the amount of intracellular DNA, in the following method. XF assay medium and the drug were removed, and the cells were placed in a cryogenic refrigerator (−80° C.) for at least 4 hours to be frozen. After the plate was made to be at room temperature, a solution where a lysis buffer and fluorescent GR dye were mixed was placed by 200 μL per well. After 20-minute reaction at room temperature, […] was measured between […] to calculate cell viability. A measured value of a well untreated with the drug was converted to 100% by reflecting cell viability to the OCR value. Concentration of a drug which inhibits the OCR value reflecting cell viability by 50% was calculated.

SK-MEL-28 cells = assay: Inhibitory effect of cancer cell proliferation, MTT; format: cell-based; conditions: Homo sapiens, SK-MEL-28, 72 hours, MTT
Description: The compounds prepared in the above Examples were evaluated for the inhibitory effect of cancer cell proliferation according to the method described in the following Test Example.
SK-MEL-28 cells derived from human melanoma were used, and the concentration (cell growth inhibitory concentration, IC50) at which cell growth was inhibited to 50% was measured using MTT reagent (3-(4,5-dimethylthiazole-2-yl)-2,5-[…] bromide) to confirm the inhibitory effect of cancer cell proliferation of the drugs synthesized in Examples 1 to 84.
First, SK-MEL-28 cells were cultured in 96-well plates at a cell number of about 1,250 in RPMI-1640 medium containing 11.1 mM glucose and 10% calf blood serum or 0.75 mM glucose and 10% calf blood serum, and were cultured for 16 hours. […] After treatment of the compound, MTT was added to the culture medium to confirm living cells and further cultured for 2 hours. The resulting formazane crystal was dissolved using dimethyl sulfoxide, and the absorbance of the solution was measured at 555 nm. After culturing for 72 hours, the number of viable cells in the well plate treated with the compounds synthesized in the Examples relative to the number of cells cultured in the well plate without treatment of the compounds was expressed as cell viability (%) according to each treatment concentration. By using this, a cell viability curve graph was prepared, and the inhibitory effect of cancer cell proliferation was confirmed by calculating the concentration of the compound whose growth was inhibited to 50% (IC50).

[2] = tested on: RENCA mouse kidney cancer cells; assay: Antitumor effect in mouse kidney cancer cells, subcutaneous RENCA implant in BALB/c mice; format: in vivo; conditions: for volume of tumor: 10 mg/kg intraperitoneally once a day, BALB/c mice
Description: RENCA, which are mouse kidney cancer cells, were cultured in RPMI 1640 medium containing 10% FBS and 1% anti-anti at 37° C. and 5% CO2. 8- to 10-week-old BALB/c mice with a body weight range of 18 g to 20 g were subjected to a 7-day acclimation period, and then 1×10^6/0.1 mL of RENCA cells in PBS were subcutaneously implanted on the right side of the backs of the mice. Seven days after implantation, group separation was performed based on the average of tumor volumes when the tumor volumes reached […]. A vehicle control group was intraperitoneally injected with PBS containing 2% DMSO and 2% Tween80, and an Example 62 administration group was intraperitoneally injected at a dose of 10 mg/kg, once a day for 2 weeks. Tumor volume measurements were performed twice weekly using Vemier calipers, and the volume of tumor was calculated by substituting long axis and short axis for 0.5×long axis×short axis^2.

[3] = 0.75 mM glucose, read-out: SK-MEL-28 0.75 mM glucose Cell viability (IC50 μM)
[4] = 11.1 mM glucose, read-out: SK-MEL-28 11.1 mM glucose Cell viability (IC50 μM)

## Br.c1cc(C[n+]2ccc(N3CCCC3)cc2)cs1 [Example 62, 4-(Pyrrolidin-1-yl)-1-(thiophen-3-ylmethyl)pyridinium bromide]
[1]
  IC50: 1 µM
SK-MEL-28 cells; [3]
  IC50: 3.1 µM
SK-MEL-28 cells; [4]
  IC50: 40.1 µM
[2]; day 7 post tumor implantation (group separation)
  volume of tumor: 81 ± 7 mm³
[2]; day 9 post tumor implantation
  volume of tumor: 146 ± 17 mm³
[2]; day 12 post tumor implantation
  volume of tumor: 227 ± 39 mm³
[2]; day 14 post tumor implantation
  volume of tumor: 364 ± 68 mm³
[2]; day 16 post tumor implantation
  volume of tumor: 545 ± 132 mm³
[2]; day 20 post tumor implantation
  volume of tumor: 775 ± 206 mm³
[2]; from the 6th day of administration, 10 mg/kg intraperitoneally once a day for 2 weeks
  tumor growth compared with the vehicle control group: remarkably inhibited tumor growth

## c1c[n+](CC2CC2)cc2c1NCCC2 [Example 63, 6-(Cyclopropylmethyl)-1,2,3,4-tetrahydro-1,6-naphthyridin-6-ium chloride]
[1]
  IC50: 7.1 µM
SK-MEL-28 cells; [3]
  IC50: 20.4 µM
SK-MEL-28 cells; [4]
  IC50: 208 µM
